Data reported in PubChem BioAssay (NCI).
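Abbreviation: GI50, concentration required for 50% inhibition of growth. TGI marks complete inhibition of growth.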

How the values were obtained:
Assay in all cases: growth of human tumour cells (NCI), 384-well format
OVCAR-3 ovarian = tested on: OVCAR-3 ovarian
HS 578T breast = tested on: HS 578T breast
MCF7 breast = tested on: MCF7 breast
UACC-62 melanoma = tested on: UACC-62 melanoma
MALME-3M melanoma = tested on: MALME-3M melanoma
EKVX NSCLC = tested on: EKVX NSCLC
T-47D breast = tested on: T-47D breast
UACC-257 melanoma = tested on: UACC-257 melanoma
CAKI-1 renal = tested on: CAKI-1 renal
M14 melanoma = tested on: M14 melanoma
NCI-H322M lung = tested on: NCI-H322M lung
SK-MEL-5 melanoma = tested on: SK-MEL-5 melanoma
NCI-H460 NSCLC = tested on: NCI-H460 NSCLC
HCC-2998 colon = tested on: HCC-2998 colon
HCT-15 colon = tested on: HCT-15 colon
NCI/ADR-RES ovarian = tested on: NCI/ADR-RES ovarian
NCI-H522 lung = tested on: NCI-H522 lung
NCI-H23 lung = tested on: NCI-H23 lung
KM12 colon = tested on: KM12 colon
HCT-116 colon = tested on: HCT-116 colon
SN12C renal = tested on: SN12C renal
SF-268 CNS = tested on: SF-268 CNS
U251 glioblastoma = tested on: U251 glioblastoma
SNB-75 CNS = tested on: SNB-75 CNS
SF-295 CNS = tested on: SF-295 CNS
OVCAR-4 ovarian = tested on: OVCAR-4 ovarian
SK-OV-3 ovarian = tested on: SK-OV-3 ovarian
K-562 leukemia = tested on: K-562 leukemia
LOX IMVI melanoma = tested on: LOX IMVI melanoma
SW-620 colon = tested on: SW-620 colon
HOP-92 NSCLC = tested on: HOP-92 NSCLC
MDA-MB-231 breast = tested on: MDA-MB-231 breast
ACHN renal = tested on: ACHN renal
PC-3 prostate = tested on: PC-3 prostate
NCI-H226 lung = tested on: NCI-H226 lung
CCRF-CEM leukemia = tested on: CCRF-CEM leukemia
IGROV1 ovarian = tested on: IGROV1 ovarian
A549 NSCLC = tested on: A549 NSCLC
786-0 renal = tested on: 786-0 renal
SNB-19 CNS = tested on: SNB-19 CNS
UO-31 renal = tested on: UO-31 renal
HOP-62 NSCLC = tested on: HOP-62 NSCLC
HT29 colon = tested on: HT29 colon
OVCAR-8 ovarian = tested on: OVCAR-8 ovarian
MDA-MB-435 melanoma = tested on: MDA-MB-435 melanoma
DU-145 prostate = tested on: DU-145 prostate
BT-549 breast = tested on: BT-549 breast
MDA-MB-468 breast = tested on: MDA-MB-468 breast
OVCAR-5 ovarian = tested on: OVCAR-5 ovarian
TK-10 renal = tested on: TK-10 renal
RPMI-8226 leukemia = tested on: RPMI-8226 leukemia
A498 renal = tested on: A498 renal
SK-MEL-28 melanoma = tested on: SK-MEL-28 melanoma
SF-539 CNS = tested on: SF-539 CNS

With `COc1ccc2c(c1)[C@]1(C[C@H]1c1ccc3c(/C=C/c4ccc(CN5C[C@@H](C)O[C@@H](C)C5)cc4)n[nH]c3c1)C(=O)N2` the GI50 (OVCAR-3 ovarian) was 1.33 µM, the TGI (OVCAR-3 ovarian) was 2.89 µM and the GI50 (HS 578T breast) was 2.23 µM. For the same molecule, the TGI (HS 578T breast) was 4.38 µM, the GI50 (MCF7 breast) was 1.64 µM and the TGI (MCF7 breast) was 3.31 µM. For the same molecule, the GI50 (UACC-62 melanoma) was 1.81 µM, the TGI (UACC-62 melanoma) was 11 µM and the GI50 (MALME-3M melanoma) was 1.26 µM. The TGI (MALME-3M melanoma) was 2.64 µM, the GI50 (EKVX NSCLC) was 3.76 µM and the TGI (EKVX NSCLC) was 46.8 µM. For the same molecule, the GI50 (T-47D breast) was 2.07 µM, the TGI (T-47D breast) was 5.25 µM and the GI50 (UACC-257 melanoma) was 2.64 µM. The TGI (UACC-257 melanoma) was 8.98 µM, the GI50 (CAKI-1 renal) was 3.6 µM and the TGI (CAKI-1 renal) was over 100 µM. For the same molecule, the GI50 (M14 melanoma) was 2.42 µM, the TGI (M14 melanoma) was 11.4 µM and the GI50 (NCI-H322M lung) was 4.48 µM. It also gave a TGI (NCI-H322M lung) of over 100 µM, a GI50 (SK-MEL-5 melanoma) of 1.5 µM and a TGI (SK-MEL-5 melanoma) of 2.85 µM. The GI50 (NCI-H460 NSCLC) was under 0.01 µM, the TGI (NCI-H460 NSCLC) was 2.02 µM and the GI50 (HCC-2998 colon) was 2.73 µM. It also gave a TGI (HCC-2998 colon) of 5.41 µM, a GI50 (HCT-15 colon) of 2.67 µM and a TGI (HCT-15 colon) of 8.83 µM. It also gave a GI50 (NCI/ADR-RES ovarian) of 1.82 µM, a TGI (NCI/ADR-RES ovarian) of 7.14 µM and a GI50 (NCI-H522 lung) of 2.29 µM. For the same molecule, the TGI (NCI-H522 lung) was over 100 µM, the GI50 (NCI-H23 lung) was 1.67 µM and the TGI (NCI-H23 lung) was 4.27 µM. For the same molecule, the GI50 (KM12 colon) was 0.0171 µM, the TGI (KM12 colon) was 1.68 µM and the GI50 (HCT-116 colon) was 1.56 µM. The TGI (HCT-116 colon) was 6.47 µM, the GI50 (SN12C renal) was 3.57 µM and the TGI (SN12C renal) was 52.9 µM. For the same molecule, the GI50 (SF-268 CNS) was under 0.01 µM, the TGI (SF-268 CNS) was 2.81 µM and the GI50 (U251 glioblastoma) was 2.34 µM. The TGI (U251 glioblastoma) was 6.9 µM, the GI50 (SNB-75 CNS) was 1.73 µM and the TGI (SNB-75 CNS) was 4.27 µM. For the same molecule, the GI50 (SF-295 CNS) was 2.74 µM, the TGI (SF-295 CNS) was 15.1 µM and the GI50 (OVCAR-4 ovarian) was 5.15 µM. For the same molecule, the TGI (OVCAR-4 ovarian) was 28 µM, the GI50 (SK-OV-3 ovarian) was 3.29 µM and the TGI (SK-OV-3 ovarian) was 33.5 µM. The GI50 (K-562 leukemia) was 0.219 µM, the TGI (K-562 leukemia) was 0.896 µM and the GI50 (LOX IMVI melanoma) was 1.65 µM. It also gave a TGI (LOX IMVI melanoma) of 3.64 µM, a GI50 (SW-620 colon) of 2.62 µM and a TGI (SW-620 colon) of 11.9 µM. The GI50 (HOP-92 NSCLC) was 2.19 µM, the TGI (HOP-92 NSCLC) was 7.29 µM and the GI50 (MDA-MB-231 breast) was 3.05 µM. For the same molecule, the TGI (MDA-MB-231 breast) was 10.4 µM, the GI50 (ACHN renal) was 2.73 µM and the TGI (ACHN renal) was 16.8 µM. For the same molecule, the GI50 (PC-3 prostate) was 3.28 µM, the TGI (PC-3 prostate) was 11 µM and the GI50 (NCI-H226 lung) was 1.25 µM. For the same molecule, the TGI (NCI-H226 lung) was 14.2 µM, the GI50 (CCRF-CEM leukemia) was under 0.01 µM and the GI50 (IGROV1 ovarian) was 4.81 µM. The TGI (IGROV1 ovarian) was over 100 µM, the GI50 (A549 NSCLC) was 1.19 µM and the TGI (A549 NSCLC) was 32.2 µM. It also gave a GI50 ([…]-0 renal) of 1.63 µM, a TGI (786-0 renal) of 3.37 µM and a GI50 (SNB-19 CNS) of 3.34 µM. The TGI (SNB-19 CNS) was 92.7 µM, the GI50 (UO-31 renal) was 4.2 µM and the TGI (UO-31 renal) was 68.1 µM. For the same molecule, the GI50 (HOP-62 NSCLC) was 1.07 µM, the TGI (HOP-62 NSCLC) was 3.32 µM and the GI50 (HT29 colon) was 1.82 µM. For the same molecule, the TGI (HT29 colon) was 3.56 µM, the GI50 (OVCAR-8 ovarian) was 2.3 µM and the TGI (OVCAR-8 ovarian) was 9.75 µM. The GI50 (MDA-MB-435 melanoma) was 4.64 µM, the TGI (MDA-MB-435 melanoma) was 17.4 µM and the GI50 (DU-145 prostate) was 3.11 µM. For the same molecule, the TGI (DU-145 prostate) was 12.9 µM, the GI50 (BT-549 breast) was 1.68 µM and the TGI (BT-549 breast) was 3.22 µM. For the same molecule, the GI50 (MDA-MB-468 breast) was under 0.01 µM, the TGI (MDA-MB-468 breast) was 0.07 µM and the GI50 (OVCAR-5 ovarian) was 4.13 µM. For the same molecule, the TGI (OVCAR-5 ovarian) was 64.5 µM, the GI50 (TK-10 renal) was 3.66 µM and the TGI (TK-10 renal) was 27.9 µM. For the same molecule, the GI50 (RPMI-8226 leukemia) was 0.156 µM, the TGI (RPMI-8226 leukemia) was 3.4 µM and the GI50 (A498 renal) was 2.33 µM. It also gave a TGI (A498 renal) of 6.32 µM, a GI50 (SK-MEL-28 melanoma) of 5.22 µM and a TGI (SK-MEL-28 melanoma) of 20.9 µM. It also gave a GI50 (SF-539 CNS) of 1.3 µM and a TGI (SF-539 CNS) of 2.64 µM.
